Like-named read-outs stand apart in the source and are kept apart here.
Tests used:
AB1054 OXA-23 = experiment: Meropenem potentiation (MPC@8), strain AB1054 OXA-23; type: cell-based, Acinetobacter baumannii
PAM1154/KPC-2 = experiment: Biapenem potentiation MPC64 in PAM1154/KPC-2 (efflux deficient, lacks MexAB-OprM); type: cell-based, Pseudomonas aeruginosa
Procedure: (§1) Efflux of BLIs from Pseudomonas aeruginosa by the MexAB-OprM efflux pump was also evaluated. The plasmid expressing the gene encoding KPC-2 was introduced into two strains of P. aeruginosa, PAM1032 and PAM 1154 that overexpressed or lacked MexAB-OprM, respectively. […] Potency of BLIs to potentiate biapenem in these strains was determined.

KP1005 CTX-M-14 = experiment: Tigemonam potentiation (MPC@4), strain KP1005 CTX-M-14
KP1004 KPC-2 [1] = experiment: Aztreonam potentiation (MPC@4), strain KP1004 KPC-2
ec308 SHV-5 = experiment: Aztreonam potentiation (MPC@4), strain ec308 SHV-5; conditions: minimum BLI concentration inhibiting growth with aztreonam 4 μg/mL; tested up to 40 μg/mL
KP1004 KPC-2 [2] = experiment: Biapenem potentiation (MPC@1), strain KP1004 KPC-2; type: cell-based; conditions: minimum BLI concentration inhibiting growth with biapenem 1 μg/mL; tested up to 40 μg/mL
Procedure: (§2) Biapenem was present in the test medium at 1 μg/mL. […] Table 3 summarizes the BLI potency of biapenem potentiation (MPC@1) for two strains overexpressing class A (KPC) and class D (OXA-48) carbapenemases. Biapenem MIC for each strain is also shown.

PAM1032/KPC-2 = experiment: Biapenem potentiation MPC64 in PAM1032/KPC-2 (efflux proficient, overexpresses MexAB-OprM); type: cell-based, Pseudomonas aeruginosa
Procedure: as §1

[3] = biological target: T1, purified class A, C and D enzymes (β-lactamases) (UniProt P0AD64, L31Q/G234S/E235K, species not given); experiment: biochemical; type: biochemical
T1 construct: Ki (SHV-12, NCF), uM; other: purified SHV-12; nitrocefin (NCF) as reporter substrate
T1 sequence (P0AD64 1-286 L31Q/G234S/E235K): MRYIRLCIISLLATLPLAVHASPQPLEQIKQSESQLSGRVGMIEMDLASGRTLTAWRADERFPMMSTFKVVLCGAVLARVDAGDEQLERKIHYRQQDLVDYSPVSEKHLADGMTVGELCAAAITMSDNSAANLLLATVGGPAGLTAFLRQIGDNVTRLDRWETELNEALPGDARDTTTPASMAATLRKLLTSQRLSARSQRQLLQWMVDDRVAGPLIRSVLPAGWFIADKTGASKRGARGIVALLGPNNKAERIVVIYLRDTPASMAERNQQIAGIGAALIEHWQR

[4] = biological target: purified class A, C and D enzymes (β-lactamases) (Escherichia coli, UniProt Q9L5C7); experiment: biochemical; type: biochemical
Sequence of purified class A, C and D enzymes (β-lactamases) (Escherichia coli, UniProt Q9L5C7) (Q9L5C7 entry or part of it): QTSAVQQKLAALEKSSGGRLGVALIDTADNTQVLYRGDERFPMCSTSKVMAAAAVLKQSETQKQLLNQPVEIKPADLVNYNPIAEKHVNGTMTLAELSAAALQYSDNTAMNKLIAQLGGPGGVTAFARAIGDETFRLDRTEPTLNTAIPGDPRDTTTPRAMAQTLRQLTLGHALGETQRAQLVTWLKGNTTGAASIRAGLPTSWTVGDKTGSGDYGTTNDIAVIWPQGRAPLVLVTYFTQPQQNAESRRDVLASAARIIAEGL

[5] = biological target: T2, purified class A, C and D enzymes (β-lactamases) (Pseudomonas aeruginosa, UniProt P24735); experiment: biochemical; type: biochemical
T2 construct: rows headed: Ki (Pa-AmpC, NCF), uM; other: purified Pa-AmpC; nitrocefin (NCF) as reporter substrate
T2 sequence (P24735 whole entry): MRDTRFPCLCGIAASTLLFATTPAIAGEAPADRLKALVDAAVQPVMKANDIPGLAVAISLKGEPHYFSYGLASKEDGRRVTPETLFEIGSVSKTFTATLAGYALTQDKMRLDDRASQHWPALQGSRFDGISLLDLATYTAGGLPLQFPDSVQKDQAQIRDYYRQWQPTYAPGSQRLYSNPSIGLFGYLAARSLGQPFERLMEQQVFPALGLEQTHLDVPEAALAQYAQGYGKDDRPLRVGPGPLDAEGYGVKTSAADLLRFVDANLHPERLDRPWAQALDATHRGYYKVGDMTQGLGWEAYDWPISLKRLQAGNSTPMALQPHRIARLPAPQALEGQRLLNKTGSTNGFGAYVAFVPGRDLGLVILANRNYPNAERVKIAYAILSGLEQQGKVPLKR

[6] = biological target: purified class A, C and D enzymes (β-lactamases) (Enterobacter cloacae, UniProt P05364); experiment: biochemical; type: biochemical
Sequence of purified class A, C and D enzymes (β-lactamases) (Enterobacter cloacae, UniProt P05364) (P05364 21-381): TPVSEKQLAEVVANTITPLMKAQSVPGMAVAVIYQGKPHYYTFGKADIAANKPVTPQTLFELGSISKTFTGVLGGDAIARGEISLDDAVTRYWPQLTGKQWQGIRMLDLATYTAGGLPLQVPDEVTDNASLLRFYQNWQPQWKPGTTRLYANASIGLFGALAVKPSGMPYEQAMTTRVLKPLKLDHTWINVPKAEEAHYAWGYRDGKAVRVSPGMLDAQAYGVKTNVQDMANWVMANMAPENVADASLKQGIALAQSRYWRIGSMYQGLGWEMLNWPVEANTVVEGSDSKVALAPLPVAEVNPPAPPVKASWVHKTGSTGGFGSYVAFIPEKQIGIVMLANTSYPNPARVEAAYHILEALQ

[7] = biological target: purified class A, C and D enzymes (β-lactamases) (Klebsiella pneumoniae, UniProt Q9F663); experiment: biochemical; type: biochemical
[8] = biological target: purified class A, C and D enzymes (β-lactamases) (Klebsiella pneumoniae, UniProt Q6XEC0); experiment: biochemical; type: biochemical
[9] = biological target: T3, purified class A, C and D enzymes (β-lactamases) (Acinetobacter baumannii, UniProt Q9L4P2); experiment: biochemical; type: biochemical; conditions: purified OXA-23; nitrocefin (NCF) as reporter substrate
T3 construct: rows headed: Ki (OXA-23, NCF), uM; other: purified OXA-23; nitrocefin (NCF) as reporter substrate
T3 sequence (Q9L4P2 whole entry): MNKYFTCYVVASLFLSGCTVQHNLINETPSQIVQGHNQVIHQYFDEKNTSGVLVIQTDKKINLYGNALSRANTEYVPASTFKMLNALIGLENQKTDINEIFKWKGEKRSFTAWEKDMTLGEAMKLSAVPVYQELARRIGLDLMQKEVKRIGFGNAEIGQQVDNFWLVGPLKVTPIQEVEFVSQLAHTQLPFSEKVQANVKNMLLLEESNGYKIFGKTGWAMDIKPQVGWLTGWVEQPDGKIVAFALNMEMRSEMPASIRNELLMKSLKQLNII

KP1009 CTX-M-15 = experiment: Aztreonam potentiation (MPC@4), strain KP1009 CTX-M-15; conditions: minimum BLI concentration inhibiting growth with aztreonam 4 μg/mL; tested up to 40 μg/mL
KP1010 SHV-12 = experiment: Aztreonam potentiation (MPC@4), strain KP1010 SHV-12
AB1053 OXA-72 = experiment: Meropenem potentiation (MPC@8), strain AB1053 OXA-72; type: cell-based, Acinetobacter baumannii; conditions: minimum BLI concentration inhibiting growth with meropenem 8 μg/mL; tested up to 20 μg/mL
KP1086 OXA-48 = experiment: Biapenem potentiation (MPC@1), strain KP1086 OXA-48; type: cell-based; conditions: minimum BLI concentration inhibiting growth with biapenem 1 μg/mL; tested up to 40 μg/mL
Procedure: as §2

ECL1002 = experiment: Aztreonam potentiation (MPC@4), strain ECL1002; conditions: minimum BLI concentration inhibiting growth with aztreonam 4 μg/mL; tested up to 40 μg/mL
ec302 TEM-10 = experiment: Aztreonam potentiation (MPC@4), strain ec302 TEM-10; conditions: minimum BLI concentration inhibiting growth with aztreonam 4 μg/mL; tested up to 40 μg/mL
EC1010 CMY-6 = experiment: Aztreonam potentiation (MPC@4), strain EC1010 CMY-6
biochemical = type: biochemical
[10] = minimum BLI concentration inhibiting growth with aztreonam 4 μg/mL, tested up to 40 μg/mL

| Compound | AZT MPC4 SHV-5 ec308 (ec308 SHV-5) | BPM MPC1 KP1004 KPC-2 (KP1004 KPC-2 [2]) | AZT MPC4 CTX-M-15 KP1009 (KP1009 CTX-M-15) | MPM MPC8 AB1053 OXA-72 (AB1053 OXA-72) | BPM MPC1 OXA-48 KP1086 (KP1086 OXA-48) | AZT MPC4 ECL1002 (ECL1002) | AZT MPC4 TEM-10 ec302 (ec302 TEM-10) | MPM MPC8 AB1054 OXA-23 (AB1054 OXA-23) | PAM1154/KPC-2 Biapenem MPC64 (PAM1154/KPC-2) | TIG MPC4 CTX-M-14 KP1005 (KP1005 CTX-M-14) | AZT MPC4 KPC-2 KP1004 (KP1004 KPC-2 [1]) | PAM1032/KPC-2 Biapenem MPC64 (PAM1032/KPC-2) | Ki (CTX-M-14, NCF), uM [4] | Ki (biochemical) [nM] | Ki [5] [nM] | Ki (P99, NCF), uM [6] | Ki (KPC-2, NCF), uM [7] | Ki (OXA-48, NCF), uM [8] | AZT MPC4 SHV-12 KP1010 (KP1010 SHV-12) | AZT MPC4 CMY-6 EC1010 (EC1010 CMY-6) | further results |
| --- | --- | --- | --- | --- | --- | --- | --- | --- | --- | --- | --- | --- | --- | --- | --- | --- | --- | --- | --- | --- | --- |
| CSCC(=O)NC1CB(O)Oc2c(C(=O)O)cccc21 (centres unmarked) [Compound 3, 2-HYDROXY-4-(2-(METHYLTHIO)ACETAMIDO)-3,4-DIHYDRO-2H-BENZO[E][1.2]OXABORININE-8-CARBOXYLIC ACID] | X (X = MPC@4 ≤ 5 μg/mL) | X (X = MPC@1 ≤ 5 μg/mL) | X (X = MPC@4 ≤ 5 μg/mL) | Y (Y = 5 μg/mL < MPC@1 ≤ 20 μg/mL) | X (X = MPC@1 ≤ 5 μg/mL) | X (X = MPC@4 ≤ 5 μg/mL) | X (X = MPC@4 ≤ 5 μg/mL) |  |  |  |  |  |  |  |  |  |  |  |  |  | MPM MPC8 AB1054 OXA-23 (AB1054 OXA-23; minimum BLI concentration inhibiting growth with meropenem 8 μg/mL, tested up to 20 μg/mL): Z (Z = MPC@1 > 20 μg/mL); PAM1154/KPC-2 Biapenem MPC64 (PAM1154/KPC-2; BLI concentration decreasing biapenem MIC 64-fold, from 32 μg/ml to 0.5 μg/ml, efflux deficient strain): 2.5; TIG MPC4 CTX-M-14 KP1005 (KP1005 CTX-M-14; minimum BLI concentration inhibiting growth with tigemonam 4 μg/mL, tested up to 40 μg/mL): X (X = MPC@4 ≤ 5 μg/mL); AZT MPC4 KPC-2 KP1004 (KP1004 KPC-2 [1]; [10]): X (X = MPC@4 ≤ 5 μg/mL); PAM1032/KPC-2 Biapenem MPC64 (PAM1032/KPC-2; BLI concentration decreasing biapenem MIC 64-fold, from 32 μg/ml to 0.5 μg/ml, efflux proficient strain): 20; Ki ([3]; purified SHV-12; nitrocefin (NCF) as reporter substrate; read-out: Ki (SHV-12, NCF)): < 100 nM; Ki (CTX-M-14, NCF), uM ([4]; purified CTX-M-14, nitrocefin (NCF) as reporter substrate): X (X = Ki ≤ 0.1 μM); Ki ([5]; purified Pa-AmpC, nitrocefin (NCF) as reporter substrate, read-out: Ki (Pa-AmpC, NCF)): < 100 nM; Ki (P99, NCF), uM ([6]; purified P99, nitrocefin (NCF) as reporter substrate): X (X = Ki ≤ 0.1 μM); Ki (KPC-2, NCF), uM ([7]; purified KPC-2, nitrocefin (NCF) as reporter substrate): X (X = Ki ≤ 0.1 μM); Ki (OXA-48, NCF), uM ([8]; purified OXA-48, nitrocefin (NCF) as reporter substrate): X (X = Ki ≤ 0.1 μM); Ki [9]: < 100 nM; AZT MPC4 SHV-12 KP1010 (KP1010 SHV-12; [10]): X (X = MPC@4 ≤ 5 μg/mL); AZT MPC4 CMY-6 EC1010 (EC1010 CMY-6; [10]): X (X = MPC@4 ≤ 5 μg/mL) |
| O=C([O-])c1nccc2c1O[B-](O)(O)CC2.[Na+].[Na+] [Compound 6, DISODIUM; 4,4-DIHYDROXY-5-OXA-8-AZA-4-BORANUIDABICYCLO[4.4.0]DECA-1(6),7,9-TRIENE-7-CARBOXYLATE] | Y (Y = 5 μg/mL < MPC@4 ≤ 20 μg/mL) | X (X = MPC@1 ≤ 5 μg/mL) | X (X = MPC@4 ≤ 5 μg/mL) | X (X = MPC@1 ≤ 5 μg/mL) | X (X = MPC@1 ≤ 5 μg/mL) | X (X = MPC@4 ≤ 5 μg/mL) | X (X = MPC@4 ≤ 5 μg/mL) | X (key: X = MPC@1 ≤ 5 μg/mL; Y = 5 μg/mL < MPC@1 ≤ 20 μg/mL; Z = MPC@1 > 20 μg/mL) | 0.3 | Y (key: X = MPC@4 ≤ 5 μg/mL; Y = 5 μg/mL < MPC@4 ≤ 20 μg/mL; Z = MPC@4 > 20 μg/mL) | X (key: X = MPC@4 ≤ 5 μg/mL; Y = 5 μg/mL < MPC@4 ≤ 20 μg/mL; Z = MPC@4 > 20 μg/mL) | 5 | X (key: X = Ki ≤ 0.1 μM; Y = 0.1 μM < Ki ≤ 1 μM; Z = Ki > 1 μM) | < 100 | < 100 | X (key: X = Ki ≤ 0.1 μM; Y = 0.1 μM < Ki ≤ 1 μM; Z = Ki > 1 μM) | X (key: X = Ki ≤ 0.1 μM; Y = 0.1 μM < Ki ≤ 1 μM; Z = Ki > 1 μM) | X (key: X = Ki ≤ 0.1 μM; Y = 0.1 μM < Ki ≤ 1 μM; Z = Ki > 1 μM) | X (key: X = MPC@4 ≤ 5 μg/mL; Y = 5 μg/mL < MPC@4 ≤ 20 μg/mL; Z = MPC@4 > 20 μg/mL) | X (key: X = MPC@4 ≤ 5 μg/mL; Y = 5 μg/mL < MPC@4 ≤ 20 μg/mL; Z = MPC@4 > 20 μg/mL) | Ki ([3]; read-out: Ki (SHV-12, NCF); purified SHV-12; nitrocefin (NCF) as reporter substrate): < 100 nM |
| O=C([O-])c1c(F)ccc2c1O[B-](O)(O)CC2.[Na+].[Na+] [Compound 8, DISODIUM; 8-FLUORO-4,4-DIHYDROXY-5-OXA-4-BORANUIDABICYCLO[4.4.0]DECA-1(6),7,9-TRIENE-7-CARBOXYLATE] | X (X = MPC@4 ≤ 5 μg/mL) | X (X = MPC@1 ≤ 5 μg/mL) | X (X = MPC@4 ≤ 5 μg/mL) | X (X = MPC@1 ≤ 5 μg/mL) | X (X = MPC@1 ≤ 5 μg/mL) | X (X = MPC@4 ≤ 5 μg/mL) | X (X = MPC@4 ≤ 5 μg/mL) | X (key: X = MPC@1 ≤ 5 μg/mL; Y = 5 μg/mL < MPC@1 ≤ 20 μg/mL; Z = MPC@1 > 20 μg/mL) | 0.6 | X (key: X = MPC@4 ≤ 5 μg/mL; Y = 5 μg/mL < MPC@4 ≤ 20 μg/mL; Z = MPC@4 > 20 μg/mL) | X (key: X = MPC@4 ≤ 5 μg/mL; Y = 5 μg/mL < MPC@4 ≤ 20 μg/mL; Z = MPC@4 > 20 μg/mL) | 5 | X (key: X = Ki ≤ 0.1 μM; Y = 0.1 μM < Ki ≤ 1 μM; Z = Ki > 1 μM) | < 100 | < 100 | X (key: X = Ki ≤ 0.1 μM; Y = 0.1 μM < Ki ≤ 1 μM; Z = Ki > 1 μM) | X (key: X = Ki ≤ 0.1 μM; Y = 0.1 μM < Ki ≤ 1 μM; Z = Ki > 1 μM) | X (key: X = Ki ≤ 0.1 μM; Y = 0.1 μM < Ki ≤ 1 μM; Z = Ki > 1 μM) | X (key: X = MPC@4 ≤ 5 μg/mL; Y = 5 μg/mL < MPC@4 ≤ 20 μg/mL; Z = MPC@4 > 20 μg/mL) | X (key: X = MPC@4 ≤ 5 μg/mL; Y = 5 μg/mL < MPC@4 ≤ 20 μg/mL; Z = MPC@4 > 20 μg/mL) |  |

Reference: patent US10618918B2, “Substituted boronic acids as antimicrobials” (priority 2015, dated 2020)
